Source: ChEMBL document CHEMBL5291721, “A preclinical secondary pharmacology resource illuminates target-adverse drug reaction associations of marketed drugs” (Nat Commun, 2023)

Columns and labels:
[1] = target: T1, Alpha-1A adrenergic receptor (Homo sapiens, UniProt P35348); format: functional, cell-based
T1 sequence (P35348 whole entry): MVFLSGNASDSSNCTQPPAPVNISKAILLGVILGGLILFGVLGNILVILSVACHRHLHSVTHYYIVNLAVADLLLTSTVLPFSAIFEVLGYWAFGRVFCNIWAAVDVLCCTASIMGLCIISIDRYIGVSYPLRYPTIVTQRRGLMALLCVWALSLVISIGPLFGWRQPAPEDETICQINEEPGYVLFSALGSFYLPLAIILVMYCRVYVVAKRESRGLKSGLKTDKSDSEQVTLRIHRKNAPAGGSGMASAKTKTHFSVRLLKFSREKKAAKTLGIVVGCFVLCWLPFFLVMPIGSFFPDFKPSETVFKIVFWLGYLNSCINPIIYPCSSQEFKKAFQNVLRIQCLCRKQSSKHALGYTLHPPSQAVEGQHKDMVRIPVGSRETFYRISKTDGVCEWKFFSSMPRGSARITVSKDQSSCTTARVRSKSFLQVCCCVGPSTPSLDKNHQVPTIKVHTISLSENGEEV

[2] = target: T2, Gastrin/cholecystokinin type B receptor (Homo sapiens, UniProt P32239)
T2 sequence (P32239 whole entry): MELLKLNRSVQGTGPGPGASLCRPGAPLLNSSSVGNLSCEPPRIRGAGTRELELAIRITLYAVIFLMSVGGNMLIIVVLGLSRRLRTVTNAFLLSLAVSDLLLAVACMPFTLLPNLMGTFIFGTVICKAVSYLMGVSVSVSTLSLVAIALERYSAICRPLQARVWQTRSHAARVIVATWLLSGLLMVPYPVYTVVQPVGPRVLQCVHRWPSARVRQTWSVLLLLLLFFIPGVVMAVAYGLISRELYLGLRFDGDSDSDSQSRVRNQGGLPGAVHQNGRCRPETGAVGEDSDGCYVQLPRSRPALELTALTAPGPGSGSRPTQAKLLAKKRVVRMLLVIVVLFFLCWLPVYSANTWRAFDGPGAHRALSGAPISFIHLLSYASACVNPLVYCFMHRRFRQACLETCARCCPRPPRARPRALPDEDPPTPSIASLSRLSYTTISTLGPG

[3] = target: Growth hormone secretagogue receptor type 1 (Homo sapiens, UniProt Q92847)
[4] = target: 5-hydroxytryptamine receptor 2B (Homo sapiens, UniProt P41595); format: functional, cell-based
[5] = target: T3, Neuropeptide Y receptor type 1 (Homo sapiens, UniProt P25929)
T3 sequence (P25929 whole entry): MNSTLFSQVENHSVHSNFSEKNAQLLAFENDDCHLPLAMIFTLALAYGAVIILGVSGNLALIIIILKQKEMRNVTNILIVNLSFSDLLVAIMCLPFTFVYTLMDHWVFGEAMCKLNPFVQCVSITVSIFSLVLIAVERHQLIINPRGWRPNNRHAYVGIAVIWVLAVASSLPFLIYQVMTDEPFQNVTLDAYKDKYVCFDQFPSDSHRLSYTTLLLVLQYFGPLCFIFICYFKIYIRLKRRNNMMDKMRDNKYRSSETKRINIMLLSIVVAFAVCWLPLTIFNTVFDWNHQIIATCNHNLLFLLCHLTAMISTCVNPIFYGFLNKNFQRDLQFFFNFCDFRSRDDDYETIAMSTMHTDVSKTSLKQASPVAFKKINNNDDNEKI

[6] = target: T4, Prostaglandin G/H synthase 1 (Rattus norvegicus, UniProt Q63921); format: functional
T4 sequence (Q63921 whole entry): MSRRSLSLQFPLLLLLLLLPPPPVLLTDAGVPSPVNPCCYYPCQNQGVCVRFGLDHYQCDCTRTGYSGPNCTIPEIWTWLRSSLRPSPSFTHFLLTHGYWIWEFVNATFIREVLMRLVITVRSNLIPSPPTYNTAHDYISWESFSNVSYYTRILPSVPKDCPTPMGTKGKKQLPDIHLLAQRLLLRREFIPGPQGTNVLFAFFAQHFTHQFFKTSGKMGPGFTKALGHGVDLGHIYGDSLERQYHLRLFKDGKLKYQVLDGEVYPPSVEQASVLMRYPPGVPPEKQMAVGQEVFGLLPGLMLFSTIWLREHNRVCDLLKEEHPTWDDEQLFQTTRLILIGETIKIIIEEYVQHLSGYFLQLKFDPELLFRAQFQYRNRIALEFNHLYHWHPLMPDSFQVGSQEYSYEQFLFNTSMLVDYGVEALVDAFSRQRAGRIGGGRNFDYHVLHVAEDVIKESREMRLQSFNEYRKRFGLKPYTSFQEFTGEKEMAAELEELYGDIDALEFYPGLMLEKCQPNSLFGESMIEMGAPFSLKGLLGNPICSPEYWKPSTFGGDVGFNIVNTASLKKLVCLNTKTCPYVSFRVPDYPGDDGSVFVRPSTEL

[7] = target: T5, Amine oxidase [flavin-containing] A (Homo sapiens, UniProt P21397); format: functional
T5 sequence (P21397 whole entry): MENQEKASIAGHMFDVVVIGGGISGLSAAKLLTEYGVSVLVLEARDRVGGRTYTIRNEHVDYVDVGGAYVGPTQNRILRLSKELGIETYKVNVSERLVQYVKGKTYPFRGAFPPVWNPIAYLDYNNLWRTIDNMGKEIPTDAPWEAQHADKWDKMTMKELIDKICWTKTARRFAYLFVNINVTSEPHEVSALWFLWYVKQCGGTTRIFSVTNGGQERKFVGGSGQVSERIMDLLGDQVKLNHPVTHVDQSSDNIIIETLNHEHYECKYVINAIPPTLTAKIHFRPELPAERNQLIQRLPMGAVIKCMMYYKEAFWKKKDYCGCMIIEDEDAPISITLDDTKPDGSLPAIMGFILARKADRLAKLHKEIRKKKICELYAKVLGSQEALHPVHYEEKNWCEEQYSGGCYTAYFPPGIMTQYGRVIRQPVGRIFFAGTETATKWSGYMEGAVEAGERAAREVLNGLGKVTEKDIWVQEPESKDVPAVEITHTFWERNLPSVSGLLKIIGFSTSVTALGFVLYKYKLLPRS

[8] = target: T1, Alpha-1A adrenergic receptor; format: functional, cell-based; remark: listed apart in the source
Further: assay procedure not described here.

Sequence of Growth hormone secretagogue receptor type 1 (Q92847 whole entry): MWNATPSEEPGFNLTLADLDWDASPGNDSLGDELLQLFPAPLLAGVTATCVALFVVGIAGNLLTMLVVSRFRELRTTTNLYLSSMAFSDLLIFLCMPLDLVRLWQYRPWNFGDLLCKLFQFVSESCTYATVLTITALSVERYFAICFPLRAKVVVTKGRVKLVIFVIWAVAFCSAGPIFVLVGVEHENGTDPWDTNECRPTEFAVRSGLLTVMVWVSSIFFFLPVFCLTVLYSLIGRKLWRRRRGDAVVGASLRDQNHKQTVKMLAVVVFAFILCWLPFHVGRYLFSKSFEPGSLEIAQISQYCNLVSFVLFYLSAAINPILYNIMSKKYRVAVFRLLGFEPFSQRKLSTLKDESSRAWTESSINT
Sequence of 5-hydroxytryptamine receptor 2B (P41595 whole entry): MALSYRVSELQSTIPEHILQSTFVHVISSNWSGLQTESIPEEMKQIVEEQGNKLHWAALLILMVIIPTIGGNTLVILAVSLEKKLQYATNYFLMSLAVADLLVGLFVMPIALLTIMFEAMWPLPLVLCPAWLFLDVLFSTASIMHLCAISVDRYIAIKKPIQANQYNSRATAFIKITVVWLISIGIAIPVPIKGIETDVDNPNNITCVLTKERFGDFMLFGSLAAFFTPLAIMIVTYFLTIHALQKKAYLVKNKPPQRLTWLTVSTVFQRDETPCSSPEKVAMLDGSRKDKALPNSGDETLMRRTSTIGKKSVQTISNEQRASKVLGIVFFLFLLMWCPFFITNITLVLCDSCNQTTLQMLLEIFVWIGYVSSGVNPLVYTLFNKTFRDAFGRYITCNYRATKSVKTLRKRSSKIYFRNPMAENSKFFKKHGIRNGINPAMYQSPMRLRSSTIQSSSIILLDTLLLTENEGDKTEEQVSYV

Row | SMILES | AC50 [1] [µM] | AC50 [2] [µM] | AC50 [3] [µM] | AC50 [4] [µM] | AC50 [5] [µM] | AC50 [6] [µM] | AC50 [7] [µM] | AC50 [8] [µM]
1 | COc1ccc2c3c1O[C@H]1C(=O)CC[C@@]4(O)[C@@H](C2)N(C)CC[C@]314 [OXYCODONE] | > 30 | > 30 | > 30 | > 30 | > 30 | > 30 | > 30 | > 30
2 | O=C(O)CCCCCCNC1c2ccccc2CCc2ccccc21 [AMINEPTINE] | > 30 | > 30 | > 30 | > 30 | > 30 | > 30 | > 30 | > 30
3 | Clc1ccc(CCCOCCCN2CCCCC2)cc1 [PITOLISANT] | > 30 | > 30 | > 30 | > 30 | > 30 | > 30 | > 30 | > 30
4 | O=C(NCCNCC(O)COc1ccc(O)cc1)N1CCOCC1 (stereo unspecified) [XAMOTEROL] | > 30 | > 30 | > 30 | > 30 | > 30 | > 30 | > 30 | –
5 | Nc1nc(N)nc(-c2cc(Cl)ccc2Cl)n1 [IRSOGLADINE] | > 30 | > 30 | > 30 | > 30 | > 30 | > 30 | > 30 | > 30
6 | CNC(C)CCC=C(C)C (stereo unspecified) [ISOMETHEPTENE] | – | > 30 | > 30 | – | > 30 | > 30 | – | –
7 | CC(=O)OCC(=O)[C@@]12N=C(C)O[C@@H]1C[C@H]1[C@@H]3CCC4=CC(=O)C=C[C@]4(C)[C@H]3[C@@H](O)C[C@@]12C [DEFLAZACORT] | > 30 | > 30 | > 30 | > 30 | > 30 | > 30 | > 30 | > 30
8 | CN1C(=O)C(O)N=C(c2ccccc2Cl)c2cc(Cl)ccc21 (stereo unspecified) [LORMETAZEPAM] | > 30 | > 30 | > 30 | > 30 | > 30 | > 10 | > 30 | > 30
9 | CCN(CC)C(=O)N[C@H]1C[C@@H]2c3cccc4[nH]cc(c34)C[C@H]2N(C)C1 [TERGURIDE] | > 30 | > 30 | > 30 | > 30 | > 30 | > 30 | > 30 | 1.1
10 | CCN1CCN(C(=O)N[C@@H](C(=O)N[C@@H]2C(=O)N3C(C(=O)O)=C(CSc4nnnn4C)CS[C@H]23)c2ccc(O)cc2)C(=O)C1=O [CEFOPERAZONE] | > 30 | > 30 | > 30 | > 30 | > 30 | > 30 | > 30 | –
11 | CC(C)OC(=O)CCC/C=C\C[C@@H]1[C@@H](CC[C@@H](O)CCc2ccccc2)[C@H](O)C[C@@H]1O [LATANOPROST] | > 30 | > 30 | > 30 | > 30 | > 30 | > 30 | > 30 | –
